Values after ≈ are worked out from the molar mass of the structure shown.
Assays:
[1] = target: T1, Phosphatidylinositol 4,5-bisphosphate 3-kinase catalytic subunit delta isoform (Homo sapiens, UniProt O00329); experiment: Inhibition of PI3Kdelta in human HL60 cell lysate by kinobead assay
T1 sequence (O00329 whole entry): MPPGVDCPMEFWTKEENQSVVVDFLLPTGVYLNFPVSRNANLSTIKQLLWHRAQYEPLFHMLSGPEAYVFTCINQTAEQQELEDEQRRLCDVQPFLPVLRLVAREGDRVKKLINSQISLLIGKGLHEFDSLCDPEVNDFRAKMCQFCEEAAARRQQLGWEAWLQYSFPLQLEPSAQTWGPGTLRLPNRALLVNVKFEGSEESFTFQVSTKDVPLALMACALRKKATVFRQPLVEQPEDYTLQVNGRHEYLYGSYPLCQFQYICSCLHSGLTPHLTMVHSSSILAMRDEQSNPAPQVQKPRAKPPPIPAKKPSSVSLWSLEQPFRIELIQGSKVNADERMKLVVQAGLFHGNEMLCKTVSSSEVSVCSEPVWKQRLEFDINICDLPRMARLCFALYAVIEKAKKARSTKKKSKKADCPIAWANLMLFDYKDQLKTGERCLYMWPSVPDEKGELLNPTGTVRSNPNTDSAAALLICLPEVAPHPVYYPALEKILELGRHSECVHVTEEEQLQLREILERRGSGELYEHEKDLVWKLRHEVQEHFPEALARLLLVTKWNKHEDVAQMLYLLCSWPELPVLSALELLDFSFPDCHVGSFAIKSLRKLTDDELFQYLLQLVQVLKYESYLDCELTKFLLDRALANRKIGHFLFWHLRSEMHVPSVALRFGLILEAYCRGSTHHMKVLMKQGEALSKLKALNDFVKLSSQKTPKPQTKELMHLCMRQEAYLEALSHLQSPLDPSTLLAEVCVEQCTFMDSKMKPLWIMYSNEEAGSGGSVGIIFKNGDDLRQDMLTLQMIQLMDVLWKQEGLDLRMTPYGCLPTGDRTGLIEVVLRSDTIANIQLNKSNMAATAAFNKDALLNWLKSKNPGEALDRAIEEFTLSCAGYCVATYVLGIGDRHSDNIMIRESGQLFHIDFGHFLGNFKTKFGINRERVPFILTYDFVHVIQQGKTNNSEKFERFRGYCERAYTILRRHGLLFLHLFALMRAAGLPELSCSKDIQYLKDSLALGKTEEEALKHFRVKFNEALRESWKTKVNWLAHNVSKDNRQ

[2] = target: Phosphatidylinositol 4,5-bisphosphate 3-kinase catalytic subunit alpha isoform (Homo sapiens, UniProt P42336); experiment: Inhibition of PI3Kalpha in human HL60 cell lysate by kinobead assay
Phosphatidylinositol 4,5-bisphosphate 3-kinase catalytic subunit alpha isoform, sequence (P42336 whole entry, canonical isoform): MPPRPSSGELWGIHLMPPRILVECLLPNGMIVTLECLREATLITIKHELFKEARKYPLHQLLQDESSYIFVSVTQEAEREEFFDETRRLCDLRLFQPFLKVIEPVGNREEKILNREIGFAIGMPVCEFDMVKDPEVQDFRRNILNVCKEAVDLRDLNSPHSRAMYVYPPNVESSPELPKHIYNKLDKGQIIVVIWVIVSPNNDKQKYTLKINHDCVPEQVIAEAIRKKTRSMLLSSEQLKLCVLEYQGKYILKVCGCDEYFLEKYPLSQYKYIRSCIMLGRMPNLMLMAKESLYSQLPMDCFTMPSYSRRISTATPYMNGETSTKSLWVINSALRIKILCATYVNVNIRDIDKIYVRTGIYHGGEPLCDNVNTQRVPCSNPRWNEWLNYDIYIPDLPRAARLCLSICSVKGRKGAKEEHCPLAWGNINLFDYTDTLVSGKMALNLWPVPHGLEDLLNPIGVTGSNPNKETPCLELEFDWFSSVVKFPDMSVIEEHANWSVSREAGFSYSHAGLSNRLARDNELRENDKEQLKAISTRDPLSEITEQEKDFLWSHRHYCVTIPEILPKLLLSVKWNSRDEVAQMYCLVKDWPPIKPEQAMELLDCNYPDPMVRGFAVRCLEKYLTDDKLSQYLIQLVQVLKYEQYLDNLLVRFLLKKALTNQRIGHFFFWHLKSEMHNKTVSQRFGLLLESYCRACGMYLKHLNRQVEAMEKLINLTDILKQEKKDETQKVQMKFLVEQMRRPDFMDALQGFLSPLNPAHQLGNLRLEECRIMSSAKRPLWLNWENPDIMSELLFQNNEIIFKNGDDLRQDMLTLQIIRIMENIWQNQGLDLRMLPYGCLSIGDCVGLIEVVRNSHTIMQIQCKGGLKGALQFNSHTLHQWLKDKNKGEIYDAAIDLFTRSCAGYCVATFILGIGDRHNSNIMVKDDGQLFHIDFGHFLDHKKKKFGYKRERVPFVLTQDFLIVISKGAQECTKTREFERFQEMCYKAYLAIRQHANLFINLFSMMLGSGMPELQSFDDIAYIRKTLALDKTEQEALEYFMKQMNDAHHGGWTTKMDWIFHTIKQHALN

[3] = target: Phosphatidylinositol 4,5-bisphosphate 3-kinase catalytic subunit gamma isoform (Homo sapiens, UniProt P48736); experiment: Inhibition of PI3Kgamma in human HL60 cell lysate by kinobead assay
Phosphatidylinositol 4,5-bisphosphate 3-kinase catalytic subunit gamma isoform, sequence (P48736 whole entry, canonical isoform): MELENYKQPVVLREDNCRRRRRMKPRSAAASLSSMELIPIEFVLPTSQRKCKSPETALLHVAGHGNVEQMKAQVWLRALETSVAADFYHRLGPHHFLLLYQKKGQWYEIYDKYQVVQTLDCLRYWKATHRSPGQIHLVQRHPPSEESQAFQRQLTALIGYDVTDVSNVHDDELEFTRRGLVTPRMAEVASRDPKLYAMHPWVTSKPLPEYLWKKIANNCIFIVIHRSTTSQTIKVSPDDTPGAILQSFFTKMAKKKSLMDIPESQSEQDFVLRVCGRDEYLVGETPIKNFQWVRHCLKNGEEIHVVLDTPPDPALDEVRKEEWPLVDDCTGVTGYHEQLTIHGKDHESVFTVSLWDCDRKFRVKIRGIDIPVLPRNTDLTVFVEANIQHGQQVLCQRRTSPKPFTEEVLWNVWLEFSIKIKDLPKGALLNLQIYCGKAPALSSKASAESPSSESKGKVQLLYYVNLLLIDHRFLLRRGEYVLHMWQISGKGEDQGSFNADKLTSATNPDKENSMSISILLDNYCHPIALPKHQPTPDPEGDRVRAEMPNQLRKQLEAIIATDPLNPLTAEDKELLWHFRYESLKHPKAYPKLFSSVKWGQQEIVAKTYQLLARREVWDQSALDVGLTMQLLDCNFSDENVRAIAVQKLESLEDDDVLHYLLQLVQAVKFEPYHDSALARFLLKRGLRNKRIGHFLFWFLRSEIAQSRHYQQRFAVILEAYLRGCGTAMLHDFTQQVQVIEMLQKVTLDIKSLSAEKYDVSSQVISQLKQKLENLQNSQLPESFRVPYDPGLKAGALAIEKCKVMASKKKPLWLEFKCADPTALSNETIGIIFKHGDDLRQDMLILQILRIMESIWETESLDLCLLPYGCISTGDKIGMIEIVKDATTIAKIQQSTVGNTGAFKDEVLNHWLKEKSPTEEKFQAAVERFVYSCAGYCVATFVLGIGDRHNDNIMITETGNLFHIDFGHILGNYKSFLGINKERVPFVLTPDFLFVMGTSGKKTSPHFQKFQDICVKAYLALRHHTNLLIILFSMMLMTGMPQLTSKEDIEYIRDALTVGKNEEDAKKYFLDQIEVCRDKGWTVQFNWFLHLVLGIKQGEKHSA

[4] = target: Phosphatidylinositol 4,5-bisphosphate 3-kinase catalytic subunit beta isoform (Homo sapiens, UniProt P42338); experiment: Inhibition of PI3Kbeta in human HL60 cell lysate by kinobead assay; type: cell-free, HL-60
Phosphatidylinositol 4,5-bisphosphate 3-kinase catalytic subunit beta isoform, sequence (P42338 whole entry, canonical isoform): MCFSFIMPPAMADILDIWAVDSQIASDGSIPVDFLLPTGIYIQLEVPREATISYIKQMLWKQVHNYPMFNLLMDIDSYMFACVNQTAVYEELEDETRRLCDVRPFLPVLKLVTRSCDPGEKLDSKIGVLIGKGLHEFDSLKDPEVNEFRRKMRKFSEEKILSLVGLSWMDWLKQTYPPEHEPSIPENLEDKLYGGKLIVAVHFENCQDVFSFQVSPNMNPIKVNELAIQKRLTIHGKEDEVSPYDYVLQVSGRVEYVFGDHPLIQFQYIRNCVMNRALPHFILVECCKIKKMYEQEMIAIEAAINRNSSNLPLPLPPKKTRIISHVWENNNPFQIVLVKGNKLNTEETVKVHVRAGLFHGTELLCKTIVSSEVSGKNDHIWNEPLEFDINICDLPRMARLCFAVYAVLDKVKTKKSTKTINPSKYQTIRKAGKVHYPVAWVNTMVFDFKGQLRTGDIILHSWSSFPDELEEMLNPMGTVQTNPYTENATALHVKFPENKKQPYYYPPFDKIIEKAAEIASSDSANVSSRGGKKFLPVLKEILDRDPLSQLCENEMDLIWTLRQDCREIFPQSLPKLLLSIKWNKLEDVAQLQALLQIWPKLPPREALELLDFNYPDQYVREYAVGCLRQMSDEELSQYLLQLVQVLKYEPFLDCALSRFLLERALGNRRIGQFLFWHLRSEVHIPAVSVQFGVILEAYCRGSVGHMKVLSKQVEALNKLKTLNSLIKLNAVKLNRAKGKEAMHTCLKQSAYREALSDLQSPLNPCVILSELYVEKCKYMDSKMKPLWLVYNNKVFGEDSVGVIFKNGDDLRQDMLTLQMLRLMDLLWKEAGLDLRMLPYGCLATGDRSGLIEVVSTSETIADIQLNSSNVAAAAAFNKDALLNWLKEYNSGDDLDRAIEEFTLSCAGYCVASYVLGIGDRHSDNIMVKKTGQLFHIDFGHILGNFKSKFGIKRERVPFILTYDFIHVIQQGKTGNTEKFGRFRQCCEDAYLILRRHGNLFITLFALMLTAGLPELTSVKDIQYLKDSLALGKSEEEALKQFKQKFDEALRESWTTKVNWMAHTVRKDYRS

[5] = Antiinflammatory activity in human neutrophils assessed as inhibition of fMLP-induced migration; type: functional, cell-based; details: Neutrophil
[6] = Kinetic solubility in 1%DMSO solution; type: physicochemical; details: read-out: Kinetic_solubility
[7] = tested on: Liver microsomes; experiment: Intrinsic clearance in human liver microsomes assessed per g of liver; type: ADME, Microsome
[8] = Apparent permeability from apical to basal side of human Caco2 cells; type: ADME, cell-based; details: Caco-2
[9] = tested on: Liver microsomes; experiment: Intrinsic clearance in rat liver microsomes assessed per g of liver; type: ADME, Microsome
[10] = Efflux ratio of apparent permeability across human Caco2 cells; type: ADME, cell-based; details: Caco-2
[11] = tested on: Mus musculus; experiment: Antiinflammatory activity in BALB/c mouse assessed as reduction in LPS-induced neutrophil accumulation in bronchoalveolar lung fluid at 0.5 mg, it administered 1 hr prior to LPS-challenge and measured after 8 hrs relative to vehicle treated control; type: functional; design: scale not given: the % may be the effect or the level left
[12] = tested on: Plasma; experiment: Drug metabolism in iv dosed rat plasma assessed as 2-(3-(6-(5-(N-tert-butylsulfamoyl)pyridin-3-yl)-[1,2,4]triazolo[1,5-a]pyridin-2-yl)ureido)acetic acid formation; type: ADME, organism-based; details: in vivo
[13] = Clearance in iv dosed rat; type: ADME, organism-based; details: in vivo
[14] = tested on: Plasma; experiment: Drug metabolism in iv dosed rat plasma assessed as CZC19945 formation; type: ADME, organism-based; details: in vivo

| SMILES | IC50 [1] [nM] | IC50 [2] [nM] | IC50 [3] [nM] | IC50 [4] [nM] | IC50 [5] [nM] | solubility kinetic [6] [µM] | CLint [7] [mL/min/g] | Papp A→B [8] [×10⁻⁶ cm/s] | CLint [9] [mL/min/g] | efflux ratio [10] | Activity [11] [%] | Drug metabolism [12] | clearance [13] [mL/min/kg] | Drug metabolism [14] |
| --- | --- | --- | --- | --- | --- | --- | --- | --- | --- | --- | --- | --- | --- | --- |
| CC(C)(C)NS(=O)(=O)c1cncc(-c2ccc3nc(NC(=O)Nc4ccccc4)nn3c2)c1 | > 25100 | > 100000 | 251 | > 100000 |  |  |  |  |  |  |  |  |  |  |
| CC(C)(C)NS(=O)(=O)c1cncc(-c2ccc3nc(NC(=O)NCc4ccccc4)nn3c2)c1 | 1580 | > 20000 | 63.1 | 3160 | 1580 |  |  |  |  |  |  |  |  |  |
| CC(C)(C)NS(=O)(=O)c1cncc(-c2ccc3nc(NC(=O)NCCc4ccccc4)nn3c2)c1 | 25.1 | > 3160 | 31.6 | 1000 | 398 |  |  |  |  |  |  |  |  |  |
| Cc1noc(C)c1CCNC(=O)Nc1nc2ccc(-c3cncc(S(=O)(=O)NC(C)(C)C)c3)cn2n1 | 12.6 | 2000 | 25.1 | 79.4 | 251 |  |  |  |  |  |  |  |  |  |
| CN(C)C(=O)CNC(=O)Nc1nc2ccc(-c3cncc(S(=O)(=O)NC(C)(C)C)c3)cn2n1 | 79.4 | 12600 | 3.16 | 1260 | 794 | < 6.5 | 0.5 | 0.54 | 0.9 | 109 |  |  |  |  |
| CC(C)(C)NS(=O)(=O)c1cncc(-c2ccc3nc(NC(=O)NCCn4cccn4)nn3c2)c1 | 200 | 631 | 25.1 | 631 | 158 |  |  |  |  |  |  |  |  |  |
| Cc1nc(CCNC(=O)Nc2nc3ccc(-c4cncc(S(=O)(=O)NC(C)(C)C)c4)cn3n2)cs1 | 15.8 | 794 | 7.94 | > 200 | 398 |  |  |  |  |  |  |  |  |  |
| CC(C)(C)NS(=O)(=O)c1cncc(-c2ccc3nc(NC(=O)NCCc4cnccn4)nn3c2)c1 | 25.1 | 1260 | 6.31 | 126 | 126 |  |  |  |  |  |  |  |  |  |
| CC(C)(C)NS(=O)(=O)c1cncc(-c2ccc3nc(NC(=O)NCCc4nnc(C5CC5)o4)nn3c2)c1 | 79.4 | 3160 | 10 | 251 | 316 |  |  |  |  |  |  |  |  |  |
| CC(C)(C)NS(=O)(=O)c1cncc(-c2ccc3nc(NC(=O)NCCn4nnc(C5CC5)n4)nn3c2)c1 | 6.31 | 794 | 2.51 | 63.1 | 79.4 | > 100 | 0 | 0.08 | 0.4 | 252 | 37 |  |  |  |
| CC(C)(C)NS(=O)(=O)c1cncc(-c2ccc3nc(NC(=O)NCCCn4nnc(C5CC5)n4)nn3c2)c1 | 50.1 | > 6310 | 63.1 | 2510 | 251 |  |  |  |  |  |  |  |  |  |
| CNC(=O)CNC(=O)Nc1nc2ccc(-c3cncc(S(=O)(=O)NC(C)(C)C)c3)cn2n1 | 794 | > 15800 | 15.8 | > 2000 | 20000 |  |  |  |  |  |  |  |  |  |
| CC(C)(C)NS(=O)(=O)c1cncc(-c2ccc3nc(NC(=O)NCC(=O)N4CCCC4)nn3c2)c1 | 63.1 | 1000 | 6.31 | 1260 | 1580 |  |  |  |  |  |  |  |  |  |
| CC(C)(C)NS(=O)(=O)c1cncc(-c2ccc3nc(NC(=O)NCC(=O)N4CCOCC4)nn3c2)c1 | 15.8 | 398 | 3.98 | 398 | 501 | > 100 | 0 |  | 0.8 |  | 34 | Not Active | > 200 | Not Active |
| CN1CCN(C(=O)CNC(=O)Nc2nc3ccc(-c4cncc(S(=O)(=O)NC(C)(C)C)c4)cn3n2)CC1 | 12.6 | 794 | 2.51 | 1000 | 1260 |  |  |  |  |  |  |  |  |  |
| CS(=O)(=O)c1cncc(-c2ccc3nc(N)nn3c2)c1 | 6310 | 10000 | 100 | 2510 |  |  |  |  |  |  |  |  |  |  |
| CC(C)(C)NS(=O)(=O)c1cncc(-c2ccc3nc(N)nn3c2)c1 | 1580 | 2510 | 25.1 | 200 | 1000 |  |  |  |  |  |  |  |  |  |
| CNC(=O)Nc1nc2ccc(-c3cncc(S(=O)(=O)NC(C)(C)C)c3)cn2n1 | 794 | > 5010 | 12.6 | 398 | 794 |  |  |  |  |  |  |  |  |  |
| CC(C)(C)NS(=O)(=O)c1cncc(-c2ccc3nc(NC(=O)N4CCOCC4)nn3c2)c1 | 3160 | > 25100 | 126 | 3980 | 7940 |  |  |  |  |  |  |  |  |  |
| CN(C)CCNC(=O)Nc1nc2ccc(-c3cncc(S(=O)(=O)NC(C)(C)C)c3)cn2n1 | 1260 | > 5010 | 126 | > 1000 | 12600 |  |  |  |  |  |  |  |  |  |
| CC(C)(C)NS(=O)(=O)c1cncc(-c2ccc3nc(NC(=O)NCCN4CCOCC4)nn3c2)c1 | 20 | 1260 | 15.8 | > 200 | 50.1 | 65 (≈ 32.7 µg/mL) | 1.4 |  | 0.9 |  |  |  |  |  |

From ChEMBL document CHEMBL2057090, “Discovery of novel PI3Kγ/δ inhibitors as potential agents for inflammation” (Bioorg Med Chem Lett, 2012)
